Legend:
[1] = test system: Staphylococcus aureus; settings: chromogenic agent in culture medium
Text: (§1) The term “chromogenic agent” is understood to denote a compound which changes color in the presence of a specific strain, in particular under the effect of the enzymatic system of said strain.

[2] = test system: Streptococcus strains; settings: chromogenic agent in culture medium; a large number of Streptococcus strains
Text: as §1

[3] = test system: Staphylococcus aureus; assay: Growth inhibition in the culture medium; type: cell-based; settings: deferoxamine in the culture medium
Text: The concentration used will preferably be between 0.010 and 0.100 g/l.

Row | Compound | Staining in the presence of S. aureus [1] | Staining of Streptococcus strains [2] | Inhibition of growth of Staphylococcus aureus [3]
1 | 5-bromo-4-chloro-3-indoxyl glucoside | without staining | stains blue | 
2 | 5-bromo-4-chloro-3-indoxyl glucuronide | negative |  | 
3 | CC(=O)N(O)CCCCCNC(=O)CCC(=O)N(O)CCCCCNC(=O)CCC(=O)N(O)CCCCCN [deferoxamine] |  |  | without inhibiting
4 | 5-bromo-6-chloro-3-indoxyl phosphate | mauve staining |  | 
5 | 5-bromo-4-chloro-3-indoxyl galactoside | negative |  | 

— US6548268B1, “Chromogenic medium for detecting Staphylococcus aureus” (priority 1999, dated 2003)
